Reference: article PMC5342262, “Synthesis, in vitro and in vivo evaluation of 3β-[^18F]fluorocholic acid for the detection of drug-induced cholestasis in mice” (PLoS ONE, 2017)
Several values for one entry are separate records, joined by “and”; a condition that tells them apart may be missing. Identical values can stand only once. Entries after “also recorded” stand apart in the source; their conditions may differ.

What was measured:
MRP2 = MRP2 (Homo sapiens, UniProt Q92887); assay: In vitro efflux competition assay with [^3H]EbG in MRP2 membrane vesicles; conditions: 10 minutes of incubation
Description: The assay was performed in 96-well plates. […] The final volume in each well was 30 μL. The plates were incubated for 10 minutes at 37°C and uptake was halted by the addition of 150 μL ice-cold buffer solution. The contents of each well were transferred to a glass fiber filter plate (Multiscreen HTS plates; Merck Millipore) and washed 3 times with 200 μL of ice-cold buffer solution. Vesicles were lysed by incubation with 100 μL 0.1 M NaOH for 10 minutes at room temperature. An 80 μL aliquot of this solution was used for liquid scintillation counting. Data points were collected in triplicate. IC50-values were calculated with Graphpad Prism v3.00.

OATP1B3 = target: T1, OATP1B3 (Homo sapiens, UniProt Q9NPD5); assay: In vitro uptake assay with [^3H]EbG in HEK-OATP1B3 cells
T1 sequence (Q9NPD5 1-702): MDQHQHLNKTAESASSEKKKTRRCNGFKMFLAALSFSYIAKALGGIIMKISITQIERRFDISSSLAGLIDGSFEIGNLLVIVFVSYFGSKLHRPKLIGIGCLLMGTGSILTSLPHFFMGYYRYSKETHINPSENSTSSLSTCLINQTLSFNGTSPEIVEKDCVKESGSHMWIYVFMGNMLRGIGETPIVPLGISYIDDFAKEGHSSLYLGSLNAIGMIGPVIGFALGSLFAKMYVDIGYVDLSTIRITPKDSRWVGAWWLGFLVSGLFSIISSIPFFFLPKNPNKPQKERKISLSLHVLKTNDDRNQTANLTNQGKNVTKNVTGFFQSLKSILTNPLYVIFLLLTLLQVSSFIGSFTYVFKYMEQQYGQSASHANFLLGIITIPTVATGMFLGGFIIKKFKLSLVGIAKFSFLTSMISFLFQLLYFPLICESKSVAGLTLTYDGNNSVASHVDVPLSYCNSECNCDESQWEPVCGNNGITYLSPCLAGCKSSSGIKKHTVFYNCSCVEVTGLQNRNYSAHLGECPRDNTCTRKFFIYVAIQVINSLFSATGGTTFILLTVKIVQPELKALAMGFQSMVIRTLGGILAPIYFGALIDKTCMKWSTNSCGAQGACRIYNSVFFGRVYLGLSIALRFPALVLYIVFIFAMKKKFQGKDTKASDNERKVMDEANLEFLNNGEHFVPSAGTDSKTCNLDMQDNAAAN
Description: (§1) Transport of 3β-fluorocholic acid by NTCP, OATP1B1 and OATP1B3 was assessed using stable transfected cell lines. Chinese hamster ovary (CHO) cells, Human Embryonic Kidney (HEK), HEK293-OATP1B3 cells were purchased from Solvo Biotechnologies; CHO-NTCP and HEK293-OATP1B1 cells were a kind gift from the same company. CHO cells were cultured in Dulbecco’s modified Eagle’s medium (DMEM)/F12 with 10% fetal calf serum, 0.3 mM L-proline, 2 mM glutamine and penicilline/streptomycine (50 U/mL). HEK cells expressing OATP1B1, OATP1B3 and control cell lines were cultured in DMEM glutamax (high glucose/pyruvate) with 10% fetal calf serum, MEM non-essential amino acid supplement and penicilline/streptomycine (50 U/mL). All cell lines were cultured in a 37°C 5% CO2 environment.
(§2) Transport of FCA by the NTCP, OATP1B1 and OATP1B3 transporters was assessed by inhibition of the tritium labeled model substrates uptake.
(§3) Cells were seeded in 24-well plates at 400,000 cells per well. […] The plates were cooled on ice and 1 mL 1% BSA ice-cold HBSS (with Ca and Mg) was added. Cells were washed twice with 2 mL ice-cold HBSS (with Ca and Mg) and were finally lysed with 250 μL 0.1 M NaOH. […] Of the lysate, 150 μL was used for liquid scintillation counting (TriCarb 2900 TR; Perkin Elmer) and 25 μL was subjected to a BCA assay (ThermoFisher Scientific) to determine protein content. Data points were collected in triplicate. IC50-values were calculated with Graphpad Prism v3.00 (Graphpad software).

OATP1B1 = target: T2, OATP1B1 (Homo sapiens, UniProt Q9Y6L6); assay: In vitro uptake assay with [^3H]EbG in HEK-OATP1B1 cells
T2 sequence (Q9Y6L6 1-691): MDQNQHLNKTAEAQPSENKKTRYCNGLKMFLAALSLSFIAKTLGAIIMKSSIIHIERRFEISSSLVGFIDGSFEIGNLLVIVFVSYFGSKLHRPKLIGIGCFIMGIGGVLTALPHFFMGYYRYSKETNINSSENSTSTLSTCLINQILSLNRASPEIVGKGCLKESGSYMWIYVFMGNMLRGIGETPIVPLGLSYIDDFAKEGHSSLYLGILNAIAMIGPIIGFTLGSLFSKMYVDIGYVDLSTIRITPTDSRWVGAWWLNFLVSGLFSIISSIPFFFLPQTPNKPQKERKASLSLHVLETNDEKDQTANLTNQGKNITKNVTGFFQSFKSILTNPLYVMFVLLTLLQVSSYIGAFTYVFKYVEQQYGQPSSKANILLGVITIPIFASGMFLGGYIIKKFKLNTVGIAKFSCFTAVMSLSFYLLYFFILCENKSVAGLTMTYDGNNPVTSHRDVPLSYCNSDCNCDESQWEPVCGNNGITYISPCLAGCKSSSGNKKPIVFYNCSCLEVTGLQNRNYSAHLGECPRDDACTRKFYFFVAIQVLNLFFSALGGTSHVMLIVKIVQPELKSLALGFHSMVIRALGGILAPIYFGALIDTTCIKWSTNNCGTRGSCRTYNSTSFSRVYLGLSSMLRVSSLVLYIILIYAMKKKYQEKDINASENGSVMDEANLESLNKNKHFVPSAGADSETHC
Description: as §1, §2, §3

[1] = tested on: hepatobiliary transport of [^18F]FCA; assay: Dynamic PET of [^18F]FCA in control, rifampicin and bosentan treated FVB-mice; conditions: female, FVB, mouse, in vivo
Description: Hepatobiliary transport of the tracer was evaluated in female wild-type FVB mice (5 weeks old, Charles River). The animals were housed in accordance with European Ethics Committee guidelines. The animal studies were approved by the Animal Experimental Ethical Committee of Ghent University (ECD 15/69). Food and water was provided ad libitum. Animals were fasted overnight before the PET-scan.
Mice were anesthetized with 1.5 v:v % isoflurane in 100% O2 for the duration of the experiment. An intravenous polyethylene line was placed in the lateral tail vein. The animals were placed in the small animal PET/CT-scanner (FLEX Triumph II small animal PET/CT-scanner; PET field of view: 7.5 cm axial; 1.3 mm spatial resolution; TriFoil Imaging) on a heated bed. A CT-scan was acquired for anatomical correlation.
The interaction of rifampicin (Sigma Aldrich) and bosentan (Activate Scientific) on in vivo [^18F]FCA transport was examined. FVB-mice were divided into 3 different groups (n = 3 per group): rifampicin, bosentan, and a control DMSO vehicle treated group). Both drugs were administered in doses of 100 mg/kg, intra-peritoneal in DMSO:PBS 70:30 v:v (rifampicin) or DMSO (bosentan) 1 hour before the start of the PET-scan. An additional dose (25 mg/kg for rifampicin in DMSO:PBS 40:60 v:v, 50 mg/kg for bosentan in DMSO) was co-injected intravenously with the tracer.
For each scan, 10 MBq of [^18F]FCA was administered intravenously and a 1 hour dynamic scan was started. Immediately after the dynamic scan, 18 MBq [^18F]FDG was injected intravenously. After 20 minutes, a 20 minutes static scan was taken.
PET-data were obtained in list-mode and were iteratively reconstructed (50 iterations) in frames of 15 seconds for the first 10 minutes, followed by 50 frames of 1 minute. ROI’s were drawn manually over liver, gallbladder and intestines using PMod software. A ROI was drawn in the left ventricle on the static [^18F]FDG scan to obtain an image-derived arterial blood input curve. The uptake of [^18F]FCA in arterial blood, liver, gallbladder and intestines was expressed as a % injected dose (% ID) and normalized for the weight of a 20 gram mouse. Time-activity curves (TAC’s) were generated using these values.
AUC, maximum % ID, and time to peak values were determined for the TAC’s with Graphpad Prism v3.00. Differences between 2 groups were determined with the non-parametric Mann-Whitney U test. P-values ≤ 0.05 were considered significant.

[2] = LogD of [^18F]FCA in octanol/PBS pH 7.4; format: physicochemical; conditions: octanol/PBS 50:50 v:v, n = 3
Description: 1 MBq of [^18F]FCA was used to spike an octanol/PBS 50:50 v:v pH 7.4 mixture in a test tube. After mixing and centrifugation (5 min; 1100 g), aliquots were taken from each layer and radioactivity was measured in a NaI (Tl) scintillation counter (Capintec; Ramsey, NJ, USA). The LogD value of [^18F]FCA was calculated as the logarithm of the ratio of counts in octanol and PBS.

[3] = Stability of [^18F]FCA in its PBS formulation; format: physicochemical; conditions: PBS pH 7.4 formulation; room temperature
[4] = Dynamic PET of [^18F]FCA in wild-type FVB mice; format: in vivo
Description: Food and water was provided ad libitum. Animals were fasted overnight before the PET-scan.
A CT-scan was acquired for anatomical correlation.
In vivo characteristics of [^18F]FCA were investigated by a two hour dynamic PET scan with 30 MBq [^18F]FCA, injected intravenously (n = 3). Four and six hours post-injection, a 30 minute static scan was performed.
P-values ≤ 0.05 were considered significant.

[5] = Stability of [^18F]FCA in mouse serum
[6] = Stability/metabolization of [^18F]FCA with primary mouse hepatocytes; conditions: mouse
[7] = tested on: primary mouse hepatocytes; assay: as above; conditions: 37°C
[8] = 15 minutes of incubation without added FCA

Sequence of MRP2 (Q92887 whole entry): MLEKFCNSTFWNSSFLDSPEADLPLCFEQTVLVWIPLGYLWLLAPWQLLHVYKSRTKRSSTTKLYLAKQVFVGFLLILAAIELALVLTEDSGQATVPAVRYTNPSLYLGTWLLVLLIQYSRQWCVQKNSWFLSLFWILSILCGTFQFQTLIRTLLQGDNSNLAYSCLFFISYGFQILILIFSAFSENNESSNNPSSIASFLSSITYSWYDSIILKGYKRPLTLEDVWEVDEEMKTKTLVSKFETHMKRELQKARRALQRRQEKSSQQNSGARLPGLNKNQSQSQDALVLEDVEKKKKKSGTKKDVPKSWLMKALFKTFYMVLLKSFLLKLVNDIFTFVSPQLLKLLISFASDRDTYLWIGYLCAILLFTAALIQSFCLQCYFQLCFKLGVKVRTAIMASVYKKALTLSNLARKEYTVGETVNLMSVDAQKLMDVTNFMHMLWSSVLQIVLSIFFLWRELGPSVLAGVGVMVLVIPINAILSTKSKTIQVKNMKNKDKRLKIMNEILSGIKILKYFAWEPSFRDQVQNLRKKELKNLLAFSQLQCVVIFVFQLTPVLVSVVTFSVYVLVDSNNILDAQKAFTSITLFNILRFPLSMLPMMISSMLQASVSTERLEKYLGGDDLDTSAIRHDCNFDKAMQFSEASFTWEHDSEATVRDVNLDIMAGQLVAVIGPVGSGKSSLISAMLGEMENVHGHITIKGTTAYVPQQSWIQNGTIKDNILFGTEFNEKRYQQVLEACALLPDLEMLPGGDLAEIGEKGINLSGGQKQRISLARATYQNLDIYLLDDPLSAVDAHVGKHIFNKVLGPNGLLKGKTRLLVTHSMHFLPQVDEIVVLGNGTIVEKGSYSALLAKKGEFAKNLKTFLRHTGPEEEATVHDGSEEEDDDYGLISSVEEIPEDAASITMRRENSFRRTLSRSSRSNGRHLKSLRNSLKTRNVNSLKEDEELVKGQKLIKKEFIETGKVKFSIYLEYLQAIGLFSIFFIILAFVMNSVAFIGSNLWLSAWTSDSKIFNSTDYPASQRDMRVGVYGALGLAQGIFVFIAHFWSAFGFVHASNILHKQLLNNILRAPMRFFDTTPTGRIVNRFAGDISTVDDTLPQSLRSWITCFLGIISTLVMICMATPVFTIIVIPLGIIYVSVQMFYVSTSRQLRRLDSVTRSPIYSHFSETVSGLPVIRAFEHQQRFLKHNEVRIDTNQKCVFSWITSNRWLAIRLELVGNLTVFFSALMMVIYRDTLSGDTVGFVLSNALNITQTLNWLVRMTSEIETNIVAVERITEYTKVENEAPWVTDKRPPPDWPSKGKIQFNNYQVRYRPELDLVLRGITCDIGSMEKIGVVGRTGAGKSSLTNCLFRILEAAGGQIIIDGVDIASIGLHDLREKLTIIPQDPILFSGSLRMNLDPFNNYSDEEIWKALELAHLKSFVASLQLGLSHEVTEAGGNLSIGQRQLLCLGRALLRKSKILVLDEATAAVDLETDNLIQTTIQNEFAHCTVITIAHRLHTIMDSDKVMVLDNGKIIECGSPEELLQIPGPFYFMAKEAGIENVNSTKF

For C[C@]12CC[C@@H]3c4ccc(O)cc4CC[C@H]3[C@@H]1CC[C@@H]2O[C@@H]1O[C@H](C(=O)O)[C@@H](O)[C@H](O)[C@H]1O [[^3H]EbG, [^3H]estradiol-17β-glucuronide], the “uptake in MRP2 vesicles” value (MRP2) was 18.5 ± 3.8 pmol/mg protein, the “uptake in HEK-OATP1B3” value (OATP1B3; [8]) was 8.6 ± 1.3 pmol/mg protein and the “uptake in HEK-OATP1B3 (kinetic profile)” value (OATP1B3; S2 file, 1 µM, 15 minutes) was 19.0 pmol/mg protein. The “uptake in HEK-OATP1B3 versus control” value (OATP1B3; S2 file, 15 minutes) was 13 times, the “uptake in HEK-OATP1B1” value (OATP1B1; [8]) was 84.0 ± 7.7 pmol/mg protein and the “uptake in HEK-OATP1B1 (kinetic profile)” value (OATP1B1; S2 file, 1 µM, 15 minutes) was 163.9 pmol/mg protein. For the same molecule, the “uptake in HEK-OATP1B1 versus control” value (OATP1B1; S2 file, 15 minutes) was 115 times.

With C[C@H](CCC(=O)O)[C@H]1CC[C@H]2[C@@H]3[C@H](O)C[C@@H]4C[C@@H]([18F])CC[C@]4(C)[C@H]3C[C@H](O)[C@]12C [[^18F]FCA, 3β-[^18F]Fluorocholic Acid] the “AUC arterial blood % injected dose” value [1] was 1.909 ± 0.572 % ID.min, the “AUC gallbladder & intestines % injected dose” value [1] was 3718 ± 182 % ID.min and the “Time to peak liver” value [1] was 5.5 ± 1.1 min. For the same molecule, the “Max % injected dose liver” value ([1]; iv) was 71.2 ± 3.5 % ID, the logD [2] was 1.19 ± 0.1 and the “time stable in PBS formulation” value [3] was “at least 6 hours”. The “AUC gallbladder & intestines % injected dose” value ([4]; IV, n = 3) was 4105 ± 36 % ID.min, the “Time to peak liver” value ([4]; IV, n = 3) was 4.5 min and 4.5 ± 0.5 min and the “Max % injected dose liver” value ([4]; IV, n = 3, normalized for a 20 g mouse) was 71.8 % ID and 71.8 ± 1.2 % ID. For the same molecule, the “uptake in urinary bladder or other organs” value ([4]; PET/CT images up to 6 hours post-injection) was “no uptake in other organs than liver, gallbladder and intestines”, the “radioactivity in gallbladder and intestines” value ([4]; after 1 hour) was 93.3 ± 6.0 % ID and 93.3 % ID and the “time stable in presence of mouse serum” value ([5]; 37°C) was “at least 1 hour”. For the same molecule, the “degradation or metabolization products in mouse serum” value ([5]; 37°C, 5, 10, 30 and 60 minutes) was “No degradation or metabolization products”, the recovery at 5 min, 37 MBq/mL ([5]; mouse) was 100% and the recovery at 10 min, 37 MBq/mL ([5]; mouse) was 100%. For the same molecule, the recovery at 30 min, 37 MBq/mL ([5]; mouse) was 100%, the recovery at 60 min, 37 MBq/mL ([5]; mouse) was 100% and the recovery at 5 min, 37 MBq/mL [6] was 100%. It also gave a recovery at 10 min, 37 MBq/mL [6] of 100%, a recovery at 30 min, 37 MBq/mL [6] of 100% and a recovery at 60 min, 37 MBq/mL [6] of 100%. The “time stable in presence of primary mouse hepatocytes” value [7] was “at least 1 hour” and the “degradation or metabolization products with primary mouse hepatocytes” value ([7]; 5, 10, 30 and 60 minutes) was “metabolically stable; also recorded: No degradation or metabolization products”.
